Source: patent US20080279907A1, “Antimicrobial medical devices and methods for making and using same” (Ash Access Technology, Inc., priority 2007, published 2008)

Columns and labels:
[1] = Desorption of parabens from paraben impregnated polycarbonate catheter pieces in 0.24 M sodium citrate pH 6.2 (HPLC); assay type: physicochemical
Method: One inch polycarbonate catheter pieces including a surface area of about 4.64 cm^2 were impregnated with methyl paraben and propyl paraben. A solution of 100% 1,2-propanediol was prepared with 9% methyl paraben and 2% propyl paraben. Pairs of the one inch catheter pieces were placed into three 25 ml flasks including 10 ml of the 1,2-propanediol and paraben solution. The flasks including the catheter pieces were placed on a shaker at 220 rpm and 27° C. for two, four, or nine hour time periods. At the end of each time period, the catheter pieces were removed, rinsed with distilled water, and dried.
Desorption analysis of the paraben impregnated catheter pieces was performed in 0.24 M sodium citrate with a pH of 6.2. The total amount of either methyl paraben or propyl paraben released from the catheter pieces was calculated using HPLC analysis performed with a Waters Alliance 2690 including a 996 Photodiode Array Detector. Each calculation used a solution of HPLC grade H2O, methanol (MeOH), and acetonitrile (CAN) which were pre-filtered through a Millipore 0.45 μm nylon filter before use. Trifluoracetic acid (TFA) was added to H2O and acetonitrile (ACN) to 0.1%. A Waters Symmetry column (C8 3.9×150 mm, 5 μm) was applied with a Waters guard column (Waters, Sentry Guard column, Nova-Pak C18, 60A, 4 μm 3.9×20 mm).
A gradient of 67% H2O/33% ACN was used for 6.5 min, ramped to 45 %/55% from 6.5 to 7.0 min, and kept at 45%/55% until 15.0 min, at 15.0 min the concentration reverted to 67%/33%, and the system was run until 18 min. Injection volume for each sample was 10 μl and samples and column were run at ambient temperature.
Table 2 includes the graphical data represented in FIG. 8 and associated with the desorption of propyl paraben from the paraben impregnated catheter pieces prepared as discussed above. Again, the samples were impregnated only with parabens and desorbed in 10 ml 0.24 M Na-citrate, pH 6.2 over time.

[2] = Perfusion of parabens and methylene blue through polycarbonate membrane in perfusion chamber (HPLC of lower chamber); assay type: physicochemical
Method: An experiment was performed to determine a method for perfusing methylene blue, methyl paraben, and propyl paraben through a polycarbonate membrane with causing only minimal changes to the strength and elasticity of the membrane. In FIG. 12, there is illustrated a perfusion chamber system 50 used during the experiment. System 50 includes an upper chamber 51 and a lower chamber 52 separated by a polycarbonate membrane 53 having a thickness of 0.60 mm. The upper and lower chambers 51, 52 are generally structured to hold 10.5 cm^3 or 10.5 ml of fluid. The upper chamber 51 was connected to a peristaltic pump (not shown) and the lower chamber 52 was filled with distilled water. First and second solutions, respectively including the parabens and the methylene blue, were prepared in accordance with the method set forth in EXAMPLE 6 above. As best seen in Tables 6 and 7 below, the solutions were connected to the pump and passed through the first chamber 51 at a constant rate at 37° C. over various lengths of time.
Table 6 includes data obtained from HPLC analysis comparing the methyl paraben, propyl paraben, and methylene blue concentrations in the lower chamber 52. The parameters for the methyl and propyl paraben and methylene blue treatments are indicated in the left hand columns.

[3] = lower chamber, 20% PG/80% DI H2O (0.9% MP, 0.2% PP) ~9 hrs at 37 C., then MB ~10 days

desorption by the end of the study ([1]; nearly 3 months, FIGS. 8 and 9): negligible desorption | period of significant release ([1]; paraben impregnated catheter pieces, 0.24 M Na-citrate pH 6.2): 10 days | Total MP released (mg)/1″ catheter ([1]; treatment 2 hrs (100% PG, 9% MP, 2% PP), time 1 hour): 0.361 mg/1″ catheter | Total MP released (mg)/1″ catheter ([1]; treatment 2 hrs (100% PG, 9% MP, 2% PP), time 3 hours): 0.577 mg/1″ catheter | Total MP released (mg)/1″ catheter ([1]; treatment 2 hrs (100% PG, 9% MP, 2% PP), time 7 hours): 0.84 mg/1″ catheter | Total MP released (mg)/1″ catheter ([1]; treatment 2 hrs (100% PG, 9% MP, 2% PP), time 24 hours): 1.17 mg/1″ catheter | Total MP released (mg)/1″ catheter ([1]; treatment 2 hrs (100% PG, 9% MP, 2% PP), time 4 days): 1.519 mg/1″ catheter | Total MP released (mg)/1″ catheter ([1]; treatment 2 hrs (100% PG, 9% MP, 2% PP), time 5 days): 1.685 mg/1″ catheter | Total MP released (mg)/1″ catheter ([1]; treatment 2 hrs (100% PG, 9% MP, 2% PP), time 6 days): 1.826 mg/1″ catheter | Total MP released (mg)/1″ catheter ([1]; treatment 2 hrs (100% PG, 9% MP, 2% PP), time 8 days): 2.002 mg/1″ catheter | Total MP released (mg)/1″ catheter ([1]; treatment 2 hrs (100% PG, 9% MP, 2% PP), time 11 days): 2.129 mg/1″ catheter | Total MP released (mg)/1″ catheter ([1]; treatment 2 hrs (100% PG, 9% MP, 2% PP), time 13 days): 2.208 mg/1″ catheter | Total MP released (mg)/1″ catheter ([1]; treatment 2 hrs (100% PG, 9% MP, 2% PP), time 15 days): 2.281 mg/1″ catheter | Total MP released (mg)/1″ catheter ([1]; treatment 2 hrs (100% PG, 9% MP, 2% PP), time 18 days): 2.325 mg/1″ catheter | Total MP released (mg)/1″ catheter ([1]; treatment 2 hrs (100% PG, 9% MP, 2% PP), time 22 days): 2.356 mg/1″ catheter | Total MP released (mg)/1″ catheter ([1]; treatment 2 hrs (100% PG, 9% MP, 2% PP), time 29 days): 2.377 mg/1″ catheter | Total MP released (mg)/1″ catheter ([1]; treatment 2 hrs (100% PG, 9% MP, 2% PP), time 36 days): 2.392 mg/1″ catheter | Total MP released (mg)/1″ catheter ([1]; treatment 2 hrs (100% PG, 9% MP, 2% PP), time 50 days): 2.402 mg/1″ catheter | Total MP released (mg)/1″ catheter ([1]; treatment 2 hrs (100% PG, 9% MP, 2% PP), time 67 days): 2.409 mg/1″ catheter | Total MP released (mg)/1″ catheter ([1]; treatment 2 hrs (100% PG, 9% MP, 2% PP), time 81 days): 2.413 mg/1″ catheter | Total MP released (mg)/1″ catheter ([1]; treatment 4 hrs (100% PG, 9% MP, 2% PP), time 1 hour): 0.603 mg/1″ catheter | Total MP released (mg)/1″ catheter ([1]; treatment 4 hrs (100% PG, 9% MP, 2% PP), time 3 hours): 1.04 mg/1″ catheter | Total MP released (mg)/1″ catheter ([1]; treatment 4 hrs (100% PG, 9% MP, 2% PP), time 7 hours): 1.472 mg/1″ catheter | Total MP released (mg)/1″ catheter ([1]; treatment 4 hrs (100% PG, 9% MP, 2% PP), time 24 hours): 2.223 mg/1″ catheter | Total MP released (mg)/1″ catheter ([1]; treatment 4 hrs (100% PG, 9% MP, 2% PP), time 4 days): 2.774 mg/1″ catheter | Total MP released (mg)/1″ catheter ([1]; treatment 4 hrs (100% PG, 9% MP, 2% PP), time 5 days): 3.01 mg/1″ catheter | Total MP released (mg)/1″ catheter ([1]; treatment 4 hrs (100% PG, 9% MP, 2% PP), time 6 days): 3.146 mg/1″ catheter | Total MP released (mg)/1″ catheter ([1]; treatment 4 hrs (100% PG, 9% MP, 2% PP), time 8 days): 3.324 mg/1″ catheter | Total MP released (mg)/1″ catheter ([1]; treatment 4 hrs (100% PG, 9% MP, 2% PP), time 11 days): 3.449 mg/1″ catheter | Total MP released (mg)/1″ catheter ([1]; treatment 4 hrs (100% PG, 9% MP, 2% PP), time 13 days): 3.536 mg/1″ catheter | Total MP released (mg)/1″ catheter ([1]; treatment 4 hrs (100% PG, 9% MP, 2% PP), time 15 days): 3.597 mg/1″ catheter | Total MP released (mg)/1″ catheter ([1]; treatment 4 hrs (100% PG, 9% MP, 2% PP), time 18 days): 3.646 mg/1″ catheter | Total MP released (mg)/1″ catheter ([1]; treatment 4 hrs (100% PG, 9% MP, 2% PP), time 22 days): 3.676 mg/1″ catheter | Total MP released (mg)/1″ catheter ([1]; treatment 4 hrs (100% PG, 9% MP, 2% PP), time 29 days): 3.701 mg/1″ catheter | Total MP released (mg)/1″ catheter ([1]; treatment 4 hrs (100% PG, 9% MP, 2% PP), time 36 days): 3.722 mg/1″ catheter | Total MP released (mg)/1″ catheter ([1]; treatment 4 hrs (100% PG, 9% MP, 2% PP), time 50 days): 3.74 mg/1″ catheter | Total MP released (mg)/1″ catheter ([1]; treatment 4 hrs (100% PG, 9% MP, 2% PP), time 67 days): 3.749 mg/1″ catheter | Total MP released (mg)/1″ catheter ([1]; treatment 4 hrs (100% PG, 9% MP, 2% PP), time 81 days): 3.755 mg/1″ catheter | Total MP released (mg)/1″ catheter ([1]; treatment 9 hrs (100% PG, 9% MP, 2% PP), time 1 hour): 0.67 mg/1″ catheter | Total MP released (mg)/1″ catheter ([1]; treatment 9 hrs (100% PG, 9% MP, 2% PP), time 3 hours): 1.18 mg/1″ catheter | Total MP released (mg)/1″ catheter ([1]; treatment 9 hrs (100% PG, 9% MP, 2% PP), time 7 hours): 1.504 mg/1″ catheter | Total MP released (mg)/1″ catheter ([1]; treatment 9 hrs (100% PG, 9% MP, 2% PP), time 24 hours): 1.993 mg/1″ catheter | Total MP released (mg)/1″ catheter ([1]; treatment 9 hrs (100% PG, 9% MP, 2% PP), time 4 days): 2.725 mg/1″ catheter | Total MP released (mg)/1″ catheter ([1]; treatment 9 hrs (100% PG, 9% MP, 2% PP), time 5 days): 3.082 mg/1″ catheter | Total MP released (mg)/1″ catheter ([1]; treatment 9 hrs (100% PG, 9% MP, 2% PP), time 6 days): 3.27 mg/1″ catheter | Total MP released (mg)/1″ catheter ([1]; treatment 9 hrs (100% PG, 9% MP, 2% PP), time 8 days): 3.456 mg/1″ catheter | Total MP released (mg)/1″ catheter ([1]; treatment 9 hrs (100% PG, 9% MP, 2% PP), time 11 days): 3.593 mg/1″ catheter | Total MP released (mg)/1″ catheter ([1]; treatment 9 hrs (100% PG, 9% MP, 2% PP), time 13 days): 3.676 mg/1″ catheter | Total MP released (mg)/1″ catheter ([1]; treatment 9 hrs (100% PG, 9% MP, 2% PP), time 15 days): 3.734 mg/1″ catheter | Total MP released (mg)/1″ catheter ([1]; treatment 9 hrs (100% PG, 9% MP, 2% PP), time 18 days): 3.788 mg/1″ catheter | Total MP released (mg)/1″ catheter ([1]; treatment 9 hrs (100% PG, 9% MP, 2% PP), time 22 days): 3.832 mg/1″ catheter | Total MP released (mg)/1″ catheter ([1]; treatment 9 hrs (100% PG, 9% MP, 2% PP), time 29 days): 3.872 mg/1″ catheter | Total MP released (mg)/1″ catheter ([1]; treatment 9 hrs (100% PG, 9% MP, 2% PP), time 36 days): 3.912 mg/1″ catheter | Total MP released (mg)/1″ catheter ([1]; treatment 9 hrs (100% PG, 9% MP, 2% PP), time 50 days): 3.944 mg/1″ catheter | Total MP released (mg)/1″ catheter ([1]; treatment 9 hrs (100% PG, 9% MP, 2% PP), time 67 days): 3.958 mg/1″ catheter | Total MP released (mg)/1″ catheter ([1]; treatment 9 hrs (100% PG, 9% MP, 2% PP), time 81 days): 3.967 mg/1″ catheter | time until perfused through the membrane and detected in the lower chamber ([2]; 0.60 mm polycarbonate membrane, 37° C.): within two hours | ratio MP/PP from this sample ([2]; lower chamber sample): 4.7 | MP Conc [2, 3]: 0.047 mg/mL | Total mg MP in 10.5 mL lower chamber [2, 3]: 0.4935 mg
SMILES: COC(=O)c1ccc(O)cc1 [MP, methyl paraben]
